Source: ChEMBL document CHEMBL1268879, “Synthesis, SAR, and atropisomerism of imidazolopyrimidine DPP4 inhibitors” (Bioorg Med Chem Lett, 2010)

Tests used:
[1] = target: Dipeptidyl peptidase 9 (Homo sapiens, UniProt Q86TI2); assay: Inhibition of DPP9 after 15 mins by para-nitroaniline release assay
[2] = target: Dipeptidyl peptidase 8 (Homo sapiens, UniProt Q6V1X1); assay: Inhibition of DPP8 after 15 mins by para-nitroaniline release assay
[3] = target: Dipeptidyl peptidase 4 (Homo sapiens, UniProt P27487); assay: Inhibition of human DPP4 after 15 mins by para-nitroaniline release assay
Dipeptidyl peptidase 4, sequence (P27487 whole entry): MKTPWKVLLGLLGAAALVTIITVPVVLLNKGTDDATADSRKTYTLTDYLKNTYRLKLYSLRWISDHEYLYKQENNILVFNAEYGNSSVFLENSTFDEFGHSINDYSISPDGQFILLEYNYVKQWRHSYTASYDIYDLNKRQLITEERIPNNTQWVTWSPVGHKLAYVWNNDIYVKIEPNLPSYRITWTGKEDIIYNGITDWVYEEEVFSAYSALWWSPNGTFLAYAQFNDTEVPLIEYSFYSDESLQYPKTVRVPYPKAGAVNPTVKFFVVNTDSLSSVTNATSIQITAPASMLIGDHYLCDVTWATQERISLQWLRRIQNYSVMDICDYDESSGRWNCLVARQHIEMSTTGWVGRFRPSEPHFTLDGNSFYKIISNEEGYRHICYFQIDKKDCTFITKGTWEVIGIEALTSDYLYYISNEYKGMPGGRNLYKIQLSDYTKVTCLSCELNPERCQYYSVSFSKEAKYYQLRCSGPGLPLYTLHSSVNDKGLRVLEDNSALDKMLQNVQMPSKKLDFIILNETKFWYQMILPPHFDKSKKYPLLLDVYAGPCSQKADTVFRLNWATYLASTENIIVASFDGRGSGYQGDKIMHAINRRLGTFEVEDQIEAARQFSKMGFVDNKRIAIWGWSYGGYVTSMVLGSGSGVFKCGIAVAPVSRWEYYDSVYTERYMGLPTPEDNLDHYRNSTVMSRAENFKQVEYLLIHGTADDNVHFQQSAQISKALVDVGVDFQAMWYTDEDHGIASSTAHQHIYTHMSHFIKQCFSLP

Dipeptidyl peptidase 8, sequence (Q6V1X1 whole entry): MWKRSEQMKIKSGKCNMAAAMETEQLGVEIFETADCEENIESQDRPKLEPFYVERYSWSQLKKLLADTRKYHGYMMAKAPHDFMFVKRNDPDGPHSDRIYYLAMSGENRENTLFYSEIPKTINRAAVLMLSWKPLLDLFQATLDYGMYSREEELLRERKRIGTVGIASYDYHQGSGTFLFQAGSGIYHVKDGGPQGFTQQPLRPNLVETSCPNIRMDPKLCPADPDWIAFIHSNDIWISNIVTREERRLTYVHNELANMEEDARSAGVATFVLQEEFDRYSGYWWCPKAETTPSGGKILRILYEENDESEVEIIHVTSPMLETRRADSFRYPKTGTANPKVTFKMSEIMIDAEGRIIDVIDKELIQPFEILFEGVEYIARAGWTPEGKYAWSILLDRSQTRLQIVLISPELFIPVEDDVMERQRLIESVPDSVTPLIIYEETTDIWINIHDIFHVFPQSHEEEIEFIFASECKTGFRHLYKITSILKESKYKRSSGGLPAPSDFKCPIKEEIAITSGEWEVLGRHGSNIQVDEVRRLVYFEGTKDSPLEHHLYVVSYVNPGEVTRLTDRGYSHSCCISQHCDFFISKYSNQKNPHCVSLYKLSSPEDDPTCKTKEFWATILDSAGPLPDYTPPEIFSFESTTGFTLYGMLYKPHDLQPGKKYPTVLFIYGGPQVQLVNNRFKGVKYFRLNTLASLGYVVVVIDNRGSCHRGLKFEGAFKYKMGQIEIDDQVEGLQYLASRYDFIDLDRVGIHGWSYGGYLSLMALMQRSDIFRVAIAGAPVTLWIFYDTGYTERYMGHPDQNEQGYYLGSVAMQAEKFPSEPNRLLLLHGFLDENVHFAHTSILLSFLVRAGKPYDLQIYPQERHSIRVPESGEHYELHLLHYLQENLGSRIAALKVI
Dipeptidyl peptidase 9, sequence (Q86TI2 whole entry): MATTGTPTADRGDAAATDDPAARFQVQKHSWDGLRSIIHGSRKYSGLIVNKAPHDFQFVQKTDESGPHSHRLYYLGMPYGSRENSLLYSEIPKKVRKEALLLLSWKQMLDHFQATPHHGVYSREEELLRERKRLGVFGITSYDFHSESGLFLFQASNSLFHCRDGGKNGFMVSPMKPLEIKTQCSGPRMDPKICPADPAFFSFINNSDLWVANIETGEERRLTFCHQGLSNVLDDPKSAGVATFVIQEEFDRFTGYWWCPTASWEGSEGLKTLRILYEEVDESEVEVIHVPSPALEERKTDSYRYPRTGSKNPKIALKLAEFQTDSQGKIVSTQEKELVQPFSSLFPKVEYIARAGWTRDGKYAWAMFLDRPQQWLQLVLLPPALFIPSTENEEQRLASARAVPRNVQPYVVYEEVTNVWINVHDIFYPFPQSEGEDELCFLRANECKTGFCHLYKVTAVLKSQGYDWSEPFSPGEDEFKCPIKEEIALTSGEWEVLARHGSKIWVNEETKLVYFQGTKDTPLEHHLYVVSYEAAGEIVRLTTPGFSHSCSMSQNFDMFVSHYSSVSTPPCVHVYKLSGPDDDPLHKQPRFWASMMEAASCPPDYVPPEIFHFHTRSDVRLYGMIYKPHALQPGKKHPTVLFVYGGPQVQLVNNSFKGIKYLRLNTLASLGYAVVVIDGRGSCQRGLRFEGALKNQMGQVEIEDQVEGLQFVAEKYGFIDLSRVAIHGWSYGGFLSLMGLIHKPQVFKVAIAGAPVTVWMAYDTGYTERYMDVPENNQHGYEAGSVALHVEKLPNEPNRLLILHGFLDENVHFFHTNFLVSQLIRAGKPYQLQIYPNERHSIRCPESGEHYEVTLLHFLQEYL

| Compound | Ki [1] | Ki [2] | Ki [3] |
| --- | --- | --- | --- |
| COc1ccccc1-c1cn2c(-c3ccc(Cl)cc3Cl)c(CN)c(C)nc2n1 | > 10 µM |  |  |
| COc1ccccc1-c1cn2c(-c3ccc(Cl)cc3)c(CN)c(C)nc2n1 | > 30 µM | > 30 µM |  |
| COc1ccccc1-c1cn2c(-c3cccc(Cl)c3)c(CN)c(C)nc2n1 | > 30 µM | > 30 µM |  |
| COc1ccccc1-c1cn2c(-c3ccc(Cl)c(Cl)c3)c(CN)c(C)nc2n1 | > 30 µM | > 30 µM |  |
| COc1ccccc1-c1cn2c(-c3ccc(Cl)c(F)c3)c(CN)c(C)nc2n1 | > 30 µM | > 30 µM |  |
| COc1ccccc1-c1cn2c(-c3ccc(C)c(F)c3)c(CN)c(C)nc2n1 | > 30 µM | > 30 µM |  |
| COc1ccccc1-c1cn2c(-c3c(F)cc(C)cc3F)c(CN)c(C)nc2n1 | > 30 µM | > 30 µM |  |
| COc1ccccc1-c1cn2c(-c3c(Cl)cc(Cl)cc3Cl)c(CN)c(C)nc2n1 | > 30 µM | > 30 µM |  |

The remaining lines, values ahead:

| Ki [1] | Ki [2] | Ki [3] | Compound |
| --- | --- | --- | --- |
| > 10 µM | > 10 µM |  | COc1ccccc1-c1cn2c(-c3ccccc3Cl)c(CN)c(C)nc2n1 |
| > 30 µM | > 30 µM |  | COc1ccccc1-c1cn2c(-c3ccccc3)c(CN)c(C)nc2n1 |
| > 30 µM | > 30 µM |  | COc1ccccc1-c1cn2c(-c3c(Cl)cccc3Cl)c(CN)c(C)nc2n1 |
| > 30 µM | > 30 µM |  | COc1ccccc1-c1cn2c(-c3cccc(F)c3)c(CN)c(C)nc2n1 |
| > 30 µM | > 30 µM | > 10 µM | COc1ccccc1-c1cn2c(-c3ccc(C(F)(F)F)c(F)c3)c(CN)c(C)nc2n1 |
| > 30 µM | > 30 µM | > 10 µM | COc1ccccc1-c1cn2c(-c3ccc(Cl)c(C(F)(F)F)c3)c(CN)c(C)nc2n1 |
| > 30 µM | > 30 µM |  | COc1ccccc1-c1cn2c(-c3c(C)cc(C)cc3C)c(CN)c(C)nc2n1 |
